From publication PMC12935919 (Frontiers in Pharmacology, 2026)
No end group written: not given here.

Legend:
[1] = system: patients with muscle atrophy (ICD-10-CM code: M62.5); assay: Clinical trial: muscle mass by DEXA; assay type: in vivo, human
Procedure: The study was conducted at Biosite Research Private Limited (Shanthipura, India) under the New Drugs and Clinical Trials Rules (2019) issued by CDSCO (Ministry of Health and Family Welfare, Government of India), and in compliance with GCP, applicable local regulatory requirements, the Declaration of Helsinki ([…]), ICMR guidelines (2017), and ICH-GCP E6 (R2). Ethical approval was obtained from the Excel Hospital Institutional Ethics Committee (ECR/1670/Inst/TG/2022) and ethics committees of other participating centers, and the trial was prospectively registered (CTRI/2024/01/061919). All participants provided written informed consent prior to any study procedures. […] Efficacy endpoints were evaluated as changes from baseline to Week 12; efficacy analyses were conducted in the per-protocol population, and safety analyses included all randomized participants who received at least one dose of study product (Supplementary Figure S2). […] Continuous variables were summarized as N, mean (SD), median, minimum, and maximum, and categorical variables as n (%), with percentages calculated as n/N × 100. Changes from baseline to Week 12 in DEXA-assessed muscle mass, 6-m walk test, and handgrip strength were analyzed using ANCOVA, adjusting for the corresponding baseline value. […]

C2C12 cells [2] = assay: Western blot of differentiation markers and myofibrillar proteins; assay type: cell-based
Procedure: To induce C2C12 myotube differentiation, myoblasts were seeded in 6-well plates at 5 × 10^5 cells per well. Once reaching 90% confluency, they were cultured in DMEM supplemented with 2% horse serum (Thermo Fisher Scientific) and 1% penicillin-streptomycin. […] Differentiation was observed using an optical microscope (LEICA, 100×). Myotube morphology (length and diameter) was quantified in ImageJ (NIH) using the same images: myotube length was measured by tracing the long axis of each myotube (end-to-end), and myotube diameter was measured as the short-axis width at three positions along each myotube; the mean of the three width values was recorded as the diameter. For each experimental group, three randomly captured images (fields) were analyzed, and at least 15–20 myotubes per image were quantified under identical imaging settings.
Treated C2C12 cells (5 × 10^5 cells/well) were harvested in lysis buffer (Sigma-Aldrich, 2910) and centrifuged at 12,000 g for 10 min; proteins in the supernatant were collected. Protein concentrations were measured using the BCA Protein Assay Kit (Thermo Fisher Scientific). Each 20 μg sample was separated using 10% SDS–PAGE and transferred onto a polyvinylidene fluoride membrane (Millipore, Burlington, MA, USA). Non-specific binding was blocked with 5% non-fat dry milk for 1 h. The membranes were incubated overnight with primary antibodies: Anti-Myf5 (Abcam, ab125078), Anti-Myf6 (Abcam, ab182842), Anti-MyoD (Santa Cruz, sc-377460), Anti-MyoG (Santa Cruz, sc-52903), Anti-α-actinin (Santa Cruz, sc-17829), Anti-MYH3 (Santa Cruz, sc-53091), Anti-p-mTOR (Ser2448) (CST, #5536), Anti-p-Akt (Ser473) (CST, #9271), Anti-p-p70 S6 Kinase (Thr389) (CST, #9205), Anti-myostatin (Abcam, ab124721), Anti-atrogin-1/MAFbx (Santa Cruz, sc-166806), and Anti-MuRF1 (Santa Cruz, sc-398608). Membranes were then incubated for 1 h with HRP-conjugated secondary antibodies. Blot images were captured with the ECL system (Amersham, UK) and quantified using ImageJ.

[3] = system: patients with muscle atrophy (ICD-10-CM code: M62.5); assay: Clinical trial: handgrip strength (hand dynamometer); assay type: in vivo, human
Procedure: The study was conducted at Biosite Research Private Limited (Shanthipura, India) under the New Drugs and Clinical Trials Rules (2019) issued by CDSCO (Ministry of Health and Family Welfare, Government of India), and in compliance with GCP, applicable local regulatory requirements, the Declaration of Helsinki ([…]), ICMR guidelines (2017), and ICH-GCP E6 (R2). Ethical approval was obtained from the Excel Hospital Institutional Ethics Committee (ECR/1670/Inst/TG/2022) and ethics committees of other participating centers, and the trial was prospectively registered (CTRI/2024/01/061919). All participants provided written informed consent prior to any study procedures. Key eligibility criteria included adults aged ≥18 years with low muscle mass by DEXA (men: <7.0 kg/m^2; women: <5.4 kg/m^2) and either low handgrip strength (men: <28 kg; women: <18 kg) or low physical performance (6-m walk speed <1.0 m/s). Major exclusion criteria included uncontrolled systemic disease, musculoskeletal or neurological disorders, recent anabolic steroid use, and concomitant medications known to affect protein metabolism; full inclusion and exclusion criteria are provided in Supplementary Table S1. Of 89 patients screened, seven were screen failures and two withdrew prior to randomization; 80 eligible participants were enrolled and proceeded to the baseline/randomization visit (mean age 38.83 ± 9.91 years; range 23-69). […] The study was double-blind; participants, investigators, and study staff were unaware of treatment allocation throughout the trial. […] Efficacy endpoints were evaluated as changes from baseline to Week 12; efficacy analyses were conducted in the per-protocol population, and safety analyses included all randomized participants who received at least one dose of study product (Supplementary Figure S2). Of 80 randomized participants, 75 completed the study. Statistical analyses were performed using SAS (version 9.4; SAS Institute Inc., Cary, NC, USA). Continuous variables were summarized as N, mean (SD), median, minimum, and maximum, and categorical variables as n (%), with percentages calculated as n/N × 100. Changes from baseline to Week 12 in DEXA-assessed muscle mass, 6-m walk test, and handgrip strength were analyzed using ANCOVA, adjusting for the corresponding baseline value. Least-squares means (LSMs), 95% confidence intervals, and two-sided p-values were reported, with p < 0.05 considered statistically significant.

C2C12 cells [4] = assay: RT-PCR / RT-qPCR of MRF genes; assay type: cell-based; settings: Day 3; Myf6, MyoD, MyoG; normalized to GAPDH
Procedure: For RT-PCR, the PCR products were electrophoresed in 1.5% agarose gel containing EtBr at 100 V for 30 min and visualized using a ChemiDocTM XRS imaging system (Bio-Rad, Hercules, CA, USA). RT-qPCR was performed using SYBR Green PCR Master Mix (Applied Biosystems, Foster City, CA, USA) for quantitative analysis. Glyceraldehyde-3-phosphate dehydrogenase (GAPDH) was used as a housekeeping gene for normalization. Relative quantification (RQ) was calculated using the ΔΔCt method, and data were expressed as RQ values by comparing the threshold cycle (Ct) of each target gene to that of GAPDH. The linearity and amplification efficiency of the PCR reactions were evaluated using serial dilutions of cDNA, and all reactions were performed in triplicate. The primer sequences used were as follows: Myf5 forward ([NT]), Myf5 reverse ([NT]), Myf6 forward ([NT]), Myf6 reverse ([NT]), MyoD forward ([NT]), MyoD reverse ([NT]), MyoG forward ([NT]), MyoG reverse ([NT]).

In the case of EAEYEHL-OH [Myoki], the “Lean muscle mass, change from baseline to Week 12 (LS mean)” value ([1]; Myoki + arginine + maltodextrin, 200 mg peptide/day oral, N = 38, 95% CI (736.90 to 1124.7), placebo 225) is reported as 930.8 g, the “Lean muscle mass, difference between placebo and treatment (95% CI)” value ([1]; Week 12, 200 mg/day, ANCOVA, p <0.01) is reported as 705.8 g and the MYH3 protein expression (C2C12 cells [2]; Day 3, Western blot, vs DM) is reported as “significant increase”. The MyoD protein expression (C2C12 cells [2]; Day 3, Western blot, vs DM) was “significant increase”, the MyoG protein expression (C2C12 cells [2]; Day 3, Western blot, vs DM) was “significant increase” and the alpha-actinin protein expression (C2C12 cells [2]; Day 3, Western blot, vs DM) was “significant increase”. For the same substance, the “increase in MYH3 expression” value (C2C12 cells [2]; Day 6, 100 μM, Western blot) was 307%, the “increase in alpha-actinin expression” value (C2C12 cells [2]; Day 6, 100 μM, Western blot) was 818% and the “Hand grip strength test (Left hand), change from baseline to Week 12 (LS mean)” value ([3]; 200 mg peptide/day oral, N = 38, 95% CI (0.77 to 1.37), placebo 0.81) was 1.07 kg. The “Hand grip strength test (Right Hand), change from baseline to Week 12 (LS mean)” value ([3]; 200 mg peptide/day oral, N = 38, 95% CI (0.94 to 1.60), placebo 0.85) was 1.27 kg, the “Hand grip strength test (Left hand), difference between placebo and treatment (95% CI)” value ([3]; Week 12, 200 mg/day, ANCOVA, p 0.02) was 0.27 kg and the “Hand grip strength test (Right Hand), difference between placebo and treatment (95% CI)” value ([3]; Week 12, 200 mg/day, ANCOVA, p 0.04) was 0.43 kg. The “MRF gene expression (mRNA)” value (C2C12 cells [4]) was “significant increase”.
